Data taken from ChEMBL document CHEMBL3045199, “Synthesis of some (E)-6-[2-(furan-2-yl)ethenyl]-1,2,4-triazin-5-ones and their biological evaluation as antitumor agents” (2013).

Experiments:
Type in all cases: functional
SNB-75 = assay: Cytotoxicity against Homo sapiens (human) SNB75 cells assessed as growth inhibition at 10 uM after 24 hr; conditions: SNB-75, 24 h, read-out: GI
[1] = Cytotoxicity against Homo sapiens (human) leukemia cells after 48 hr by SRB assay; conditions: Leukemia cell
HCT-15 = assay: Cytotoxicity against Homo sapiens (human) HCT15 cells assessed as growth inhibition at 10 uM after 24 hr; conditions: HCT-15, 24 h, read-out: GI
SW-620 = assay: Cytotoxicity against Homo sapiens (human) SW620 cells assessed as growth inhibition at 10 uM after 24 hr; conditions: SW-620, 24 h, read-out: GI
UACC-62 = assay: Cytotoxicity against Homo sapiens (human) UACC62 cells assessed as growth inhibition at 10 uM after 24 hr; conditions: UACC-62, 24 h, read-out: GI
A498 = assay: Cytotoxicity against Homo sapiens (human) A498 cells assessed as growth inhibition at 10 uM after 24 hr; conditions: A498, 24 h, read-out: GI
NCI-H23 = assay: Cytotoxicity against Homo sapiens (human) NCI-H23 cells assessed as growth inhibition at 10 uM after 24 hr; conditions: NCI-H23, 24 h, read-out: GI
CCRF-CEM = assay: Cytotoxicity against Homo sapiens (human) CCRF-CEM cells assessed as growth inhibition at 10 uM after 24 hr; conditions: read-out: GI
MDA-MB-435 = assay: Cytotoxicity against Homo sapiens (human) MDA-MB-435 cells after 48 hr by SRB assay; conditions: MDA-MB-435, 48 h
[2] = Cytotoxicity against Homo sapiens (human) renal cancer cells after 48 hr by SRB assay; conditions: Cancer cell lines
[3] = Cytotoxicity against Homo sapiens (human) breast cancer cells after 48 hr by SRB assay; conditions: Cancer cell lines
[4] = read-out: LC50 (the source's name)

For Nc1cc(-c2ccc(Cl)cc2)nn1-c1nc(=O)c(/C=C/c2ccco2)n[nH]1, the inhibition of growth at 10 µM (SNB-75) was 32.6%, the GI50 [1] was 2.71 µM and the TGI [1] was 17.9 µM. It also gave a CC50 [1, 4] greater than 100 µM, an inhibition of growth at 10 µM (HCT-15) of 61.9% and an inhibition of growth at 10 µM (SW-620) of 50.8%. For the same compound, the inhibition of growth at 10 µM (UACC-62) was 47.5%, the inhibition of growth at 10 µM (A498) was 66.2% and the inhibition of growth at 10 µM (NCI-H23) was 41.2%. For the same compound, the inhibition of growth at 10 µM (CCRF-CEM) was 66.1%, the GI50 (MDA-MB-435) was 5.22 µM and the TGI (MDA-MB-435) was greater than 100 µM. For the same compound, the CC50 (MDA-MB-435; [4]) was greater than 100 µM, the GI50 [2] was 5.85 µM and the TGI [2] was 37.4 µM. It also gave a CC50 [2, 4] greater than 100 µM, a GI50 [3] of 6.39 µM and a TGI [3] of 48.1 µM. The CC50 [3, 4] was greater than 100 µM.
